Consider 1 compound from patent US10669288B2, “Lanthanide complexes based on triethylenetetramine-N,N,N′,N″,N′″,N′″-hexaacetic acid derivatives” (UNIVERSITE D'ORLEANS, priority 2017, dated 2020).

Data set [1] is described as follows: Photophysical properties (absorption, emission, luminescence lifetime, quantum yields) in solution. Type of data set: physicochemical. The text has this: L1 ligand and L1Nd^3+ complex (Example 2) both have broad absorption bands which extend over a wavelength range having values as high as 750 nm with maxima centered at ˜615 and ˜670 nm and molar absorption coefficients up to 5·10^3 M^−1 cm^−1. Upon excitation of the low energy absorption bands located on L1 and on the L1Nd^3+ complex, it is possible to observe broadband emission signals from the chromophore ligand centered at ˜690 nm with a shoulder at ˜740 nm. The complex L1Nd^3+, when excited at a wavelength of 650 nm, produces a narrow emission band with a maximum at 1064 nm which is characteristic of the electronic structure of Nd^3+ resulting from the transition ^4F3/2→^4I11/2. […] As a result, ligand L1 and complex L1Nd^3+ both have excitation and emission wavelengths included in the domain of the biological diagnostic window (FIG. 1).
The quantitative luminescence parameters (luminescence lifetime (i) and luminescence quantum yields centered on L1-(QL) and on Nd^3+-(QNd)) determined on the L1Nd^3+ complex are summarized in Table 3.1.
Relatively short life time values T (in the nanosecond range) and low QNd quantum yields have been measured for the near-infrared emission of Nd^3+ in comparison with the highest corresponding values that have been published to date. […]
The quantum yield of the emission from the ligand is lower by a ratio of 30% for the Nd^3+ complex relative to the L1 ligand. […] It is important to point out that narrow Nd^3+ emission band positions are unaffected by microenvironmental changes, which is a major advantage over the “wavelength” indocyanine green commercial fluorophore. of similar excitation (Fernandez-Fernandez, R. Manchanda, T. Lei, D. A. Carvajal, Y. Tang, S. Z. Razza Kazmi, A. J. McGoron, Comparative study of the optical and heat generation properties of IR820 and indocyanine green, Molecular imaging, 11 (2012) 99 and S. Mordon, J. M. Devoisselle, S. Soulie-Begu, T. Desmetter, Indocyanine green: Physicochemical factors affecting its fluorescence in vivo, Microvascular Research, 55 (1998) 146-152).

The nature of data set [2]: Photostability in solution under continuous illumination at 630 nm. To be noted: 3 h continuous illumination at 630 nm; 100 μM, HEPES pH 7.5, room temperature. Type of data set: physicochemical. The text has this:
The photostabilities of L1 and L1Nd^3+ were studied under continuous illumination at 630 nm (FIG. 2).

“And” between values parts separate entries of the source, which are not always exact repeats. Identical values can stand only once.

With `NCCNc1ccc(NCCNC(=O)CN(CCN(CCN(CCN(CC(=O)O)CC(=O)O)CC(=O)O)CC(=O)O)CC(=O)O)c2c1C(=O)c1c(O)ccc(O)c1C2=O` [Compound L1, 3-(2-((2-((4-((2-aminoethyl)amino)-5,8-di hydroxy-9,10-dioxo-9,10-dihydroanthracen-1-yl)aminoacid)ethyl)amino)-2-oxoethyl)-6,9,12-tris(carboxymethyl)-3,6,9,12-tétraazatétradécane-1,14-dioic], the absorption maxima in data set [1] (broad absorption bands extending to 750 nm, HEPES buffer) is ~615 nm and ~670 nm. In data set [1] (excitation at 620 nm, emission collected 640-850 nm, 100 μM, pH = 7.5, room temperature), the “QL(%) (quantum yield centered on L1)” value is on record as 0,257(5) %. In data set [1] (excitation of low energy absorption bands, shoulder at ~740 nm), the “broadband emission from the chromophore ligand, centre” value is recorded as around 690 nm. Moreover, the “loss of initial emission intensity” value in data set [2] is around 70%.
